In patent US9346803B2 (Vanderbilt University, priority 2011, dated 2016):
Entries after “also recorded” stand apart in the source; their conditions may differ. Values belong to the molecule of their own block, whether it stands above or below them.

Assays:
AKR1C4 = AKR1C4 (Homo sapiens (Human), UniProt P17516); experiment: Inhibition of S-tetralol oxidation, AKR1C4; format: biochemical
[1] = target: homogeneous recombinant AKR1C3 (Homo sapiens (Human), UniProt P42330); experiment: Inhibition of NADP+ dependent oxidation of S-tetralol catalyzed by AKR1C3; format: biochemical; details: S-tetralol substrate at Km
homogeneous recombinant AKR1C3, sequence (P42330 whole entry): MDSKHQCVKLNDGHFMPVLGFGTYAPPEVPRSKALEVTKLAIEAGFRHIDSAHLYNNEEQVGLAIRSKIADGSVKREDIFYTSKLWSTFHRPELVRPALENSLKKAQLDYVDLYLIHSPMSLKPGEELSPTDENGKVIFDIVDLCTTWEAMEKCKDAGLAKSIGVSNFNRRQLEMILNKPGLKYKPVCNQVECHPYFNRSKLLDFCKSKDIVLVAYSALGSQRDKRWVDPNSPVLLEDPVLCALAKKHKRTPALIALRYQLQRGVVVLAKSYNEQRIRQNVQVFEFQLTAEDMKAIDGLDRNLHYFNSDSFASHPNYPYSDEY

AKR1C2 = AKR1C2 (Homo sapiens (Human), UniProt P52895); experiment: Inhibition of S-tetralol oxidation, AKR1C2; format: biochemical; details: for IC50: S-tetralol substrate at Km
AKR1C2, sequence (P52895 whole entry): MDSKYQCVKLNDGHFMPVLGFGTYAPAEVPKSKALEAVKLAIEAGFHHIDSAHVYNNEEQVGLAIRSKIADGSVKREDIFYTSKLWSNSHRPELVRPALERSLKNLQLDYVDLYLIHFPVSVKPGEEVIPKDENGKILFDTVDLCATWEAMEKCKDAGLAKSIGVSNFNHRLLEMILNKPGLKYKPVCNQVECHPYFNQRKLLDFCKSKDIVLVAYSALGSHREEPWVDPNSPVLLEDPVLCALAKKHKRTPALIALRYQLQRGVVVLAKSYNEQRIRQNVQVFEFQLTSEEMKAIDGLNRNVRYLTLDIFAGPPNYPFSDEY

AKR1C1 = AKR1C1 (Homo sapiens (Human), UniProt Q04828); experiment: Inhibition of S-tetralol oxidation, AKR1C1; format: biochemical; details: for IC50: S-tetralol substrate at Km
AKR1C1, sequence (Q04828 whole entry): as the sequence (P52895 whole entry) above, with V38T, H47R, V54L, S87C, M151V, H170R, L172Q counted along it
Description: Inhibitors were initially screened for an ability to block the NADP+ dependent oxidation of the artificial substrate S-tetralol catalyzed by AKR1C3. S-tetralol was used since it is also a substrate of the highly related AKR1C1 and AKR1C2 enzymes.
Initially, the ratios of IC50 values for AKR1C2 versus AKR1C3 were compared. High ratios were indicative of high selectivity for AKR1C3.
The latter assay is used to determine whether lead compounds act as AR agonists or block 5α-DHT reporter gene activity by acting as androgen receptor antagonists.

androgen receptor (AR) = experiment: HeLa-cell androgen receptor (AR) luciferase reporter gene assay driven by DHT; format: cell-based; details: for AR agonism or antagonism (DHT stimulation of the AR): AR luciferase reporter gene assay; for androgen receptor antagonism: luciferase AR reporter gene assay driven by DHT, FIG. 11
Description: Secondary screens involve one or more of: (a) a full-screen against all nine human recombinant AKR enzymes to ensure there are no-intended off-target effects; (b) a screen against COX-1 and COX-2 to reaffirm that compounds will not act as NSAIDs; and (c) a HeLa-cell androgen receptor (AR) reporter gene assay. The latter assay is used to determine whether lead compounds act as AR agonists or block 5α-DHT reporter gene activity by acting as androgen receptor antagonists.

[2] = system: LNCaP cells stably transfected with AKR1C3; experiment: Conversion of Δ4-androstene-3,17-dione to testosterone in LNCaP-AKR1C3 transfected cells; format: cell-based, human; details: 30 μM
Description: Tertiary screens involve one or more of (d) expanded reporter gene assays to determine whether compounds act as agonists or antagonists of other steroid hormone receptors; (e) inhibition of the conversion of Δ^4-androstene-3,17-dione to testosterone in androgen receptor dependent prostate cancer cells (including, but not limited to LNCaP; available from the American type Culture Collection (ATCC), Manassas, Va., United States of America) stably transfected with AKR1C3; and (f) inhibition of growth of castrate-resistant prostate cancer cells in a murine xenograft model.

COX-1 = experiment: Screen against COX-1; format: biochemical; details: at concentrations greater than 100 μM
VCaP cells = experiment: Δ4-androstene-3,17-dione driven expression of PSA in VCaP cells; format: cell-based, human
[3] = system: VCaP cells in a murine xenograft model; details: Cai et al., 2011; cited from earlier work

AKR1C4, sequence (P17516 whole entry): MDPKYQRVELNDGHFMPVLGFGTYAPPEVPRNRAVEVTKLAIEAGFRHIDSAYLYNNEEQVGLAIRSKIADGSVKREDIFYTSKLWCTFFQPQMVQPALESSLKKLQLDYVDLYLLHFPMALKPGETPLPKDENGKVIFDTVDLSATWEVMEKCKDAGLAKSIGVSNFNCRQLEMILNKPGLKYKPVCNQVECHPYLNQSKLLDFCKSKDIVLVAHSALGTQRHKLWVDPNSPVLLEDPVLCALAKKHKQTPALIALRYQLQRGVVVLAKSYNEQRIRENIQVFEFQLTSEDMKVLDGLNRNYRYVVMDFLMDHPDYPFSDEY

fold selectivity for AKR1C3 over AKR1C4 (AKR1C4; number in parenthesis): > 135 fold
IC50 [1]: 0.74 µM
IC50 (AKR1C2): 81 µM
fold selectivity for AKR1C3 over AKR1C2 (AKR1C2; number in parenthesis, ratio of IC50 values): 108 fold
fold selectivity for AKR1C3 over AKR1C1 (AKR1C1; number in parenthesis): > 135 fold
Structure (SMILES): COc1ccc2c(c1)c(CC(=O)NS(=O)(=O)C(F)(F)F)c(C)n2C(=O)c1ccc(Cl)cc1

IC50 [1]: 0.16 µM
Structure (SMILES): COc1ccc2c(c1)c(CC(=O)O)c(C)n2C(=O)c1ccc(C)cc1

IC50 [1]: 0.12 µM
IC50 (AKR1C2): 40.7 µM
IC50 (AKR1C1): 100 µM
Structure (SMILES): COc1ccc2c(c1)c(CC(=O)O)c(C)n2C(=O)c1ccc(CCl)cc1

IC50 (AKR1C2): 35.7 µM
Structure (SMILES): COc1ccc2c(c1)c(CC(=O)O)c(C)n2C(=O)c1ccc(C(F)(F)F)cc1

IC50 [1]: 0.09 µM
IC50 (AKR1C2): 49.6 µM
IC50 (AKR1C1): 30.7 µM
Structure (SMILES): CCc1c(CCC(=O)O)n(C(=O)c2ccc(Cl)cc2)c2ccc(OC)cc12

IC50 (AKR1C4; S-tetralol substrate at Km): 3.15 µM
Structure (SMILES): COc1ccc2c(c1)c1c(n2C(=O)c2ccc(Cl)cc2)CCC(C(=O)O)C1 (stereo not shown)

Structure (SMILES): COc1ccc2c(c1)c(CC(=O)NS(=O)(=O)C(F)(F)F)cn2C(=O)c1ccc(Cl)cc1 [Compound 1]
AR agonism or antagonism (DHT stimulation of the AR) (androgen receptor (AR)): did not act as AR agonists or antagonists
androgen receptor antagonism (androgen receptor (AR)): lack of androgen receptor antagonism

Structure (SMILES): COc1ccc2c(c1)c(C)c(CCC(=O)O)n2C(=O)c1ccc(Cl)cc1 [Compound 2]
conversion of Δ4-androstene-3,17-dione to testosterone [2]: completely blocked
COX-1 inhibition (COX-1): did not inhibit COX-1
AR agonism or antagonism (DHT stimulation of the AR) (androgen receptor (AR)): did not act as AR agonists or antagonists
androgen receptor antagonism (androgen receptor (AR)): lack of androgen receptor antagonism

Structure (SMILES): COc1ccc2c(c1)c(C)c(CCC(=O)NS(C)(=O)=O)n2C(=O)c1ccc(Cl)cc1 [Compound 3]
conversion of Δ4-androstene-3,17-dione to testosterone [2]: completely blocked
COX-1 inhibition (COX-1): did not inhibit COX-1
AR agonism or antagonism (DHT stimulation of the AR) (androgen receptor (AR)): did not act as AR agonists or antagonists
androgen receptor antagonism (androgen receptor (AR)): lack of androgen receptor antagonism

IC50 (AKR1C2): 14.5 µM
IC50 (AKR1C1): 17.7 µM
Structure (SMILES): COc1ccc2c(c1)c(C)c(CCC(=O)O)n2C(=O)c1ccc(Cl)cc1 [drawing 37]

IC50 [1]: 0.34 µM
IC50 (AKR1C2): 93 µM
IC50 (AKR1C1): 100 µM
Structure (SMILES): COc1ccc2c(c1)c(C)c(CCC(=O)NS(C)(=O)=O)n2C(=O)c1ccc(Cl)cc1 [drawing 38]

Structure (SMILES): COc1ccc2c(c1)c(CC(=O)O)c(C)n2C(=O)c1ccc(Cl)cc1 [indomethacin]
Δ4-androstene-3,17-dione driven expression of PSA (VCaP cells): blocked; also recorded: inhibition
AR dependent gene transcription and tumor growth in xenograft [3]: block AR dependent gene transcription and cell growth and proliferation of the tumor
